Target: T1, RORγ (Homo sapiens, UniProt P51449)
T1 construct: expressed in transfected cells; host or cells: 293FT cells (Invitrogen), expression vector pFN26A (Promega)
T1 sequence (P51449 269-508 limits assumed): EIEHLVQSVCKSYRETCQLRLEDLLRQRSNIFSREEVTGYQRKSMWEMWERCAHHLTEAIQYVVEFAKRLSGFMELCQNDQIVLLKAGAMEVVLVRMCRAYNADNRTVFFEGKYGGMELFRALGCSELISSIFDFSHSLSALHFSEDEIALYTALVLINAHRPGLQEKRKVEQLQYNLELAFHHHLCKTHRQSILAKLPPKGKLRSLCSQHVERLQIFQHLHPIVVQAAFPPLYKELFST
Assay: RORγ GAL4 reporter gene assay
Type: cell-based
Conditions: inhibition of RORγ activity, GAL4-RORγ-LBD luciferase reporter in 293FT cells, overnight incubation; read-out: mean pIC50 (converted)
Description: Example inhibitors 1-166 were tested for their ability to inhibit RORγ activity in a RORγ GAL4 reporter gene assay. The assay procedure and results are described below.
RORγ GAL4 Reporter Gene Assay Description
A GAL4 one-hybrid reporter system employing luciferase readout was established to determine inhibition of RORγ in 293FT cells. The RORγ ligand-binding domain (LBD) was fused to the yeast GAL4 DNA binding domain (DBD) and placed under the control of the human cytomegalovirus (CMV) immediate early promoter, using expression vector pFN26A (Promega) and standard recombinant DNA cloning methods. To serve as a control in the assay, a similar vector was generated in which the GAL4-DBD was fused to Herpes simplex virus protein 16 (VP16), a constitutive transcriptional activator.
To monitor the inhibitory effect of compounds on RORγ, a transcriptional reporter construct was used. The pGL4.35 vector (Promega) contains nine copies of the GAL4 Upstream Activator Sequence (UAS). This sequence drives the transcription of the luciferase reporter gene luc2P in response to binding of a fusion protein containing the GAL4 DNA binding domain, as for example expressed by the GAL4-RORγ-LBD and GAL4-VP16 expression vectors described above. To allow a GAL4 fusion protein to drive the expression of the luciferase reporter, the pGL4.35 expression vector and the appropriate GAL4 fusion protein expression vector were bulk transfected in the 293FT cells using standard transfection techniques.
The day after transfection, cells were plated into 96 well plates, test compound was added and the plates were incubated overnight. Subsequently, the firefly luciferase activity was quantified using luciferase detection reagent and luminescence readout.
Detailed Assay Description
293FT cells (Invitrogen) were transfected with a GAL4 fusion protein expression vector (as described above) and the transcriptional reporter construct (pGL4.35, Promega). 60 μL of TransIT-293 transfection reagent (Mirus Bio) was added drop wise to 1500 μl Opti-MEM I Reduced Serum Medium (Invitrogen) and incubated at room temperature (RT) for 5 to 20 minutes. 1500 μL of this reagent mixture was added to 5 μg of GAL4 fusion protein expression vector and 5 μg of the transcriptional reporter construct, and incubated at RT for 20 minutes.
To harvest 293FT cells from a T75 flask, first the culture medium was taken off the cells. Subsequently, the cells were washed with Phosphate Buffered Saline (PBS) (Lonza), after which the PBS was removed. To dissociate the cells, 1 ml of TrypLE Express (Invitrogen) was added to the flask, followed by incubation at RT until the cells visually started to detach. Cells were collected in 5 mL of assay medium (DMEM culture medium (Lonza), 10% dialyzed FBS (Invitrogen) and Pen/Strep (Lonza)) to achieve a single cell suspension. 10×10^6 cells were spun down and re-suspended in 10 mL of assay medium. Subsequently, the cell suspension was added to the transfection mix tube, and then transferred as a whole to a T75 flask (Greiner), followed by overnight (16-24 hours) incubation at 37° C. and 5% CO2.
For compound screening, the cells were harvested (as described above) and counted. 13×10^6 cells were spun down, the supernatant was aspirated and the cells were re-suspended in 17.3 mL of assay medium obtaining a cell suspension of 0.75×10^6 cells/mL. 80 μL of cell suspension (60,000 cells) was plated per well into a white, flat bottom, tissue culture treated, 96 well screening plates (Greiner).
Test compounds were diluted, starting from a 10 mM dimethylsulfoxide (DMSO) stock solution, to serial dilutions in DMSO at 500× the final test concentration. Subsequently, these solutions were diluted to 5× the final test concentration in two 10-fold-dilution steps in assay medium. The final DMSO concentration of the 5× test compound solution was 1%. […]

Row | Compound | IC50 [nM]
1 | CCOC(=O)CN(Cc1ccccc1)C(=O)c1ccc(NC(=O)Cc2ccc(S(=O)(=O)CC3CC3)cc2)cc1 [Example 32, ethyl 2-(N-benzyl-1-{4-[2-(4-cyclopropylmethanesulfonylphenyl)acetamido]phenyl}formamido)acetate] | ≤ 10
2 | CCOC(=O)c1cc2c(s1)CN(C(=O)c1ccc(NC(=O)Cc3ccc(S(=O)(=O)CC4CC4)cc3)cc1)CC2 [Example 33, ethyl 6-{4-[2-(4-cyclopropylmethanesulfonylphenyl)acetamido]benzoyl}-4H,5H,6H,7H-thieno[2,3-c]pyridine-2-carboxylate] | ≤ 1000
3 | CN(C(=O)c1ccc(NC(=O)Cc2ccc(S(=O)(=O)CC3CC3)cc2)cc1)C1CCCCC1 [Example 34, N-cyclohexyl-4-[2-(4-cyclopropylmethanesulfonylphenyl)acetamido]-N-methylbenzamide] | ≤ 1000
4 | O=C(Cc1ccc(S(=O)(=O)CC2CC2)cc1)Nc1ccc(C(=O)N2CCCC2c2ccccc2)cc1 (centres unmarked) [Example 35, 2-(4-cyclopropylmethanesulfonylphenyl)-N-[4-(2-phenylpyrrolidine-1-carbonyl)phenyl]acetamide] | ≤ 100
5 | O=C(Cc1ccc(S(=O)(=O)CC2CC2)cc1)Nc1ccc(C(=O)N2CCCCC2)cc1 [Example 36, 2-(4-cyclopropylmethanesulfonylphenyl)-N-[4-(piperidine-1-carbonyl)phenyl]acetamide] | ≤ 1000
6 | CC(C)CN(C(=O)c1ccc(NC(=O)Cc2ccc(S(=O)(=O)CC3CC3)cc2)cc1)c1ccccc1 [Example 37, 4-[2-(4-cyclopropylmethanesulfonylphenyl)acetamido]-N-(2-methylpropyl)-N-phenylbenzamide] | ≤ 10
7 | CCOC(=O)c1csc(C2CCCN2C(=O)c2ccc(NC(=O)Cc3ccc(S(=O)(=O)CC4CC4)cc3)cc2)n1 (centres unmarked) [Example 38, ethyl 2-(1-{4-[2-(4-cyclopropylmethanesulfonylphenyl)acetamido]benzoyl}pyrrolidin-2-yl)-1,3-thiazole-4-carboxylate] | ≤ 1000
8 | O=C(Cc1ccc(S(=O)(=O)CC2CC2)cc1)Nc1ccc(C(=O)N2CCCCC2CN2CCOCC2)cc1 (centres unmarked) [Example 39, 2-(4-cyclopropylmethanesulfonylphenyl)-N-{4-[2-(morpholin-4-ylmethyl)piperidine-1-carbonyl]phenyl}acetamide] | ≤ 1000
9 | O=C(Cc1ccc(S(=O)(=O)CC2CC2)cc1)Nc1ccc(C(=O)N2CCCc3ccccc32)cc1 [Example 40, 2-(4-cyclopropylmethanesulfonylphenyl)-N-[4-(1,2,3,4-tetrahydroquinoline-1-carbonyl)phenyl]acetamide] | ≤ 10
10 | O=C(Cc1ccc(S(=O)(=O)CC2CC2)cc1)Nc1ccc(C(=O)N2CCc3ccccc32)cc1 [Example 41, 2-(4-cyclopropylmethanesulfonylphenyl)-N-[4-(2,3-dihydro-1H-indole-1-carbonyl)phenyl]acetamide] | ≤ 1000
11 | CCN(Cc1ccccc1)C(=O)c1ccc(NC(=O)Cc2ccc(S(=O)(=O)CC3CC3)cc2)cc1 [Example 42, N-benzyl-4-[2-(4-cyclopropylmethanesulfonylphenyl)acetamido]-N-ethylbenzamide] | ≤ 100
12 | CCN(C(=O)c1ccc(NC(=O)Cc2ccc(S(=O)(=O)NC3CC3)cc2)cc1)c1ccccc1 [Example 43, 4-{2-[4-(cyclopropylsulfamoyl)phenyl]acetamido}-N-ethyl-N-phenylbenzamide] | ≤ 10
13 | CN(C(=O)c1ccc(NC(=O)Cc2ccc(S(=O)(=O)NC3CC3)cc2)cc1)c1ccccc1 [Example 44, 4-{2-[4-(cyclopropylsulfamoyl)phenyl]acetamido}-N-methyl-N-phenylbenzamide] | ≤ 100
14 | CCN(C(=O)c1ccc(NC(=O)Cc2ccc(S(=O)(=O)NC3CC3)cc2)cc1)c1cccc(C)c1 [Example 46, 4-{2-[4-(cyclopropylsulfamoyl)phenyl]acetamido}-N-ethyl-N-(3-methylphenyl) benzamide] | ≤ 10
15 | CCN(C(=O)c1ccc(NC(=O)Cc2ccc(S(=O)(=O)NC3CC3)cc2)cc1)c1cccc(C(=O)OC)c1 [Example 47, methyl 3-(N-ethyl-4-{2-[4-(cyclopropylsulfamoyl)phenyl]acetamido}benzamido) benzoate] | ≤ 100
16 | O=C(Cc1ccc(S(=O)(=O)CC2CC2)cc1)Nc1ccc(C(=O)N2CCCC(c3ccccc3)C2)cc1 (centres unmarked) [Example 48, 2-(4-cyclopropylmethanesulfonylphenyl)-N-[4-(3-phenylpiperidine-1-carbonyl)phenyl]acetamide] | ≤ 100
17 | O=C(Cc1ccc(S(=O)(=O)CC2CC2)cc1)Nc1ccc(C(=O)N2CCCCC2c2ccccc2)cc1 (centres unmarked) [Example 49, 2-(4-cyclopropylmethanesulfonylphenyl)-N-[4-(2-phenylpiperidine-1-carbonyl)phenyl]acetamide] | ≤ 10
18 | CCN(C(=O)c1ccc(NC(=O)Cc2ccc(S(=O)(=O)NC3CC3)cc2)cc1)c1cccnc1 [Example 50, 4-{2-[4-(cyclopropylsulfamoyl)phenyl]acetamido}-N-ethyl-N-(pyridin-3-yl)benzamide] | ≤ 1000
19 | CCN(C(=O)c1ccc(NC(=O)Cc2ccc(S(=O)(=O)CC3CC3)cc2)nc1)c1ccccc1 [Example 51, 6-[2-(4-cyclopropylmethanesulfonylphenyl)acetamido]-N-ethyl-N-phenylpyridine-3-carboxamide] | ≤ 100
20 | CCN(C(=O)c1ccc(NC(=O)Cc2ccc(S(=O)(=O)CC3CC3)cc2)cc1)c1cccnc1 [Example 52, 4-[2-(4-cyclopropylmethanesulfonylphenyl)acetamido]-N-ethyl-N-(pyridin-3-yl) benzamide] | ≤ 100
21 | CCN(C(=O)c1ccc(NC(=O)Cc2ccc(S(=O)(=O)CC3CC3)cc2)c(Cl)c1)c1ccccc1 [Example 53, 3-chloro-4-[2-(4-cyclopropylmethanesulfonylphenyl)acetamido]-N-ethyl-N-phenylbenzamide] | ≤ 100
22 | CCN(C(=O)c1ccc(NC(=O)Cc2ccc(S(=O)(=O)NC3CC3)cc2)nc1)c1ccccc1 [Example 54, 6-{2-[4-(cyclopropylsulfamoyl)phenyl]acetamido}-N-ethyl-N-phenylpyridine-3-carboxamide] | ≤ 1000
23 | O=C(Cc1ccc(S(=O)(=O)CC2CC2)cc1)Nc1ccc(C(=O)N2CCc3ccccc3C2)cc1 [Example 55, 2-(4-cyclopropylmethanesulfonylphenyl)-N-[4-(1,2,3,4-tetrahydroisoquinoline-2-carbonyl)phenyl]acetamide] | ≤ 100
24 | CCN(Cc1cc(C)on1)C(=O)c1ccc(NC(=O)Cc2ccc(S(=O)(=O)CC3CC3)cc2)cc1 [Example 56, 4-[2-(4-cyclopropylmethanesulfonylphenyl)acetamido]-N-ethyl-N-[(5-methyl-1,2-oxazol-3-yl)methyl]benzamide] | ≤ 100
25 | CN1CCN(C(=O)c2ccc(NC(=O)Cc3ccc(S(=O)(=O)CC4CC4)cc3)cc2)C(c2ccccc2)C1 (centres unmarked) [Example 57, 2-(4-cyclopropylmethanesulfonylphenyl)-N-[4-(4-methyl-2-phenylpiperazine-1-carbonyl)phenyl]acetamide] | ≤ 100
26 | CCN(C(=O)c1ccc(NC(=O)Cc2ccc(S(=O)(=O)CC3CC3)cc2)cc1OC)c1ccccc1 [Example 58, 4-[2-(4-cyclopropylmethanesulfonylphenyl)acetamido]-N-ethyl-2-methoxy-N-phenylbenzamide] | ≤ 100
